For this assay, the target named is T1, human cardiac ion channel proteins hKir3.1/Kir3.4 (Homo sapiens, UniProt P48544+P48549).
T1 construct: expressed in transfected cells
T1 sequence (P48549 1-501): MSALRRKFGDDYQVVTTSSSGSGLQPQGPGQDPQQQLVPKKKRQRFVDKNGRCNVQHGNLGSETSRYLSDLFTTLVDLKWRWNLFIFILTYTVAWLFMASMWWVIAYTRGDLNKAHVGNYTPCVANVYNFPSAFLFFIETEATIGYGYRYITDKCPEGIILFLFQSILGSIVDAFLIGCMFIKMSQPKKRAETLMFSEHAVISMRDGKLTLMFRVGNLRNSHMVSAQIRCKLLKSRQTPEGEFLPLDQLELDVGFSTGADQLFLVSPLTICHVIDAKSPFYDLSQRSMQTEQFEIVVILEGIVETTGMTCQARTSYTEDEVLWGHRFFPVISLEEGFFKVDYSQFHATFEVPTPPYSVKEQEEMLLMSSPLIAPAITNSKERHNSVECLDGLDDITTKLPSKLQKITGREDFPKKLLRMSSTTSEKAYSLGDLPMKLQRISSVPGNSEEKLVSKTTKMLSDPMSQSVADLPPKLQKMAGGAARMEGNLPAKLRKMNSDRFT
T1 sequence (P48544 1-419): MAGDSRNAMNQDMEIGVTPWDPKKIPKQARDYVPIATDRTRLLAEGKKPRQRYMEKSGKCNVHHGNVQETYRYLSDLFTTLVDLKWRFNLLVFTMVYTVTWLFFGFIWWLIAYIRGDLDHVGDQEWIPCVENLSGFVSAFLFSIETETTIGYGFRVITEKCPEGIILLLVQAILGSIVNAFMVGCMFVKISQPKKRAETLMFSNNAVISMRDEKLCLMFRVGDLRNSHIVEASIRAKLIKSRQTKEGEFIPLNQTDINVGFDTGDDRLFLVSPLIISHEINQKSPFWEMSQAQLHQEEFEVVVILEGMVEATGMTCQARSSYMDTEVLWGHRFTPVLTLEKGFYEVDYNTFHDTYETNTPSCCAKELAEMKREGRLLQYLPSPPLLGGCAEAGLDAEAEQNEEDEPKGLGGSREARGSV
Nature of the assay: Atomic Absorption Screening (AAS) Rb efflux assay of hKir3.1/Kir3.4 block, carbachol/high K+ stimulated, 10-pt or 7-pt CR. It is filed as cell-based. Conditions: 10-pt CR (0.003 to 67 μmol/L), AAS Rb efflux, CHO-K1 cells expressing hKir3.1/Kir3.4; mean of >4 replicates; read-out: IKACh IC50 10-pt CR, AAS. The method in brief: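 CHO-K1 cells stably co-expressing human Kir3.1/Kir3.4 were Rb-loaded for 3 h at 37° C, preincubated with compound 5 min at RT, then stimulated 10 min with 10 μM carbachol plus 20 mM KCl (final). Supernatant Rb was measured by atomic absorption. Compounds ran at 0.003–67 μmol/L (10-pt) or 0.037–27 μmol/L (7-pt), threefold dilutions; IC50s are means of >4 or >3 replicates respectively.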

pIC50: −log10 of the molar value.

Take `COC[C@@H]1CCCN1C[C@H](C(C)C)N(C)C(=O)c1ccc(Br)cc1` [Example 3.20, 4-Bromo-N-((S)-1-((S)-2-(methoxymethyl)pyrrolidin-1-yl)-3-methylbutan-2-yl)-N-methylbenzamide]: the pIC50 was 5.08. Under `CN(C(=O)c1ccc(Cl)cc1)[C@H](CN1CCC1)C1CC1` [Example 4.2, (S)-N-(2-(Azetidin-1-yl)-1-cyclopropylethyl)-4-chloro-N-methylbenzamide] stands 5.55; under `CN(C(=O)c1ccc(Br)cc1)[C@H](CN1CCC1)C1CC1` [Example 4.3, (S)-N-(2-(Azetidin-1-yl)-1-cyclopropylethyl)-4-bromo-N-methylbenzamide], 5.17.

Regarding `CC(C)[C@@H](CN1CC(O)C1)N(C)C(=O)c1ccc(Br)cc1` [Example 6.3, (S)-4-Bromo-N-(1-(3-hydroxyazetidin-1-yl)-3-methylbutan-2-yl)-N-methylbenzamide], the pIC50 is 5.60. With `CN(C(=O)c1ccc(F)cc1)[C@H](CN1CC(O)C1)C1CC1` [Example 7.4, (S)-N-(1-Cyclopropyl-2-(3-hydroxyazetidin-1-yl)ethyl)-4-fluoro-N-methylbenzamide], the pIC50 is 5.01. For the molecule `CN(C(=O)c1ccc(F)c(C(F)(F)F)c1)[C@H](CN1CC(O)C1)C1CC1` [Example 7.5, (S)-N-(1-Cyclopropyl-2-(3-hydroxyazetidin-1-yl)ethyl)-4-fluoro-N-methyl-3-(trifluoromethyl)benzamide], the pIC50 is 5.74. As for `CCC[C@@H](CN1CC(O)C1)N(C)C(=O)c1ccc(F)c(Cl)c1` [Example 8.3, (S)-3-Chloro-4-fluoro-N-(1-(3-hydroxyazetidin-1-yl)pentan-2-yl)-N-methylbenzamide], the pIC50 is 6.10.

With `CCC[C@@H](CN1CC(O)C1)N(C)C(=O)c1ccc(Cl)c(C)c1` [Example 8.4, (S)-4-Chloro-N-(1-(3-hydroxyazetidin-1-yl)pentan-2-yl)-N,3-di-methylbenzamide], the pIC50 is 6.70. As to `CCC[C@@H](CN1CC(O)C1)N(C)C(=O)c1ccc(F)c(C(F)(F)F)c1` [Example 8.5, (S)-4-Fluoro-N-(1-(3-hydroxyazetidin-1-yl)pentan-2-yl)-N-methyl-3-(trifluoromethyl)benzamide], the pIC50 was 6.24. For `CCC[C@@H](CN1CC(O)C1)N(C)C(=O)c1ccc(Br)cc1` [Example 8.7, (S)-4-Bromo-N-(1-(3-hydroxyazetidin-1-yl)pentan-2-yl)-N-methylbenzamide], the pIC50 was 5.77. In the case of `CCC[C@@H](CN1CC(O)C1)N(C)C(=O)c1cccc(C(F)(F)F)c1` [Example 8.8, (S)-N-(1-(3-Hydroxyazetidin-1-yl)pentan-2-yl)-N-methyl-3-(tri-fluoromethyl)benzamide], the pIC50 is 5.62.

Turning to `CCC[C@@H](CN1CC(O)C1)N(C)C(=O)c1ccc(C#N)cc1` [Example 8.9, (S)-4-Cyano-N-(1-(3-hydroxyazetidin-1-yl)pentan-2-yl)-N-methylbenzamide], the pIC50 was 5.07. Take `CCC[C@@H](CN1CC(O)C1)N(C)C(=O)c1cccc(C)c1` [Example 8.10, (S)-N-(1-(3-Hydroxyazetidin-1-yl)pentan-2-yl)-N,3-dimethyl-benzamide]: the pIC50 was 5.37.

Turning to `CCC[C@@H](CN1CC(O)C1)N(C)C(=O)c1ccc(F)c(C)c1` [Example 8.11, (S)-4-Fluoro-N-(1-(3-hydroxyazetidin-1-yl)pentan-2-yl)-N,3-di-methylbenzamide], the pIC50 is 6.08. As to `Cc1cc(C(=O)N(C)[C@H](CN2C[C@H](O)[C@@H](O)C2)C(C)C)ccc1F` [Example 8.12, N-((S)-1-((3S,4S)-3,4-Dihydroxypyrrolidin-1-yl)-3-methylbutan-2-yl)-4-fluoro-N,3-dimethylbenzamide], the pIC50 is 5.37.

In the case of `Cc1cc(C(=O)N(C)[C@H](CN2C[C@H](O)[C@@H](O)C2)C(C)C)ccc1Cl` [Example 8.13, 4-Chloro-N-((S)-1-((3S,4S)-3,4-dihydroxypyrrolidin-1-yl)-3-methylbutan-2-yl)-N,3-dimethylbenzamide], the negative logarithm of the IC50 (pIC50) was 5.72. Take `CC(C)[C@@H](CN1C[C@H](O)[C@@H](O)C1)N(C)C(=O)c1ccc(Cl)cc1` [Example 8.14, 4-Chloro-N-((S)-1-((3S,4S)-3,4-dihydroxypyrrolidin-1-yl)-3-methylbutan-2-yl)-N-methylbenzamide]: the pIC50 is 5.24. `CC(C)[C@@H](CN1C[C@H](O)[C@@H](O)C1)N(C)C(=O)c1ccc(Cl)c(F)c1` [Example 8.15, 4-Chloro-N-((S)-1-((3S,4S)-3,4-dihydroxypyrrolidin-1-yl)-3-methylbutan-2-yl)-3-fluoro-N-methylbenzamide]: the pIC50 is 5.35. As for `Cc1cc(C(=O)N(C)[C@H](CN2C[C@@H](O)[C@H](O)C2)C(C)C)ccc1Cl` [Example 8.16, 4-Chloro-N-((S)-1-((3R,4R)-3,4-dihydroxypyrrolidin-1-yl)-3-methylbutan-2-yl)-N,3-dimethylbenzamide], the pIC50 is 4.80. Consider `CC[C@@H](CN1CC(O)C1)N(C)C(=O)c1ccc(F)c(C)c1` [Example 8.17, (S)-4-Fluoro-N-(1-(3-hydroxyazetidin-1-yl)butan-2-yl)-N,3-dimethylbenzamide], for which the pIC50 was 5.70. Consider `Cc1cc(C(=O)N(C)[C@H](CN2CC(O)(C3CC3)C2)C2CC2)ccc1F` [Example 9.1, (S)—N-(1-Cyclopropyl-2-(3-cyclopropyl-3-hydroxyazetidin-1-yl)ethyl)-4-fluoro-N,3-dimethylbenzamide], for which the pIC50 is 5.59. Under `CN(C(=O)c1ccc(F)c(Cl)c1)[C@H](CN1CC(O)(C2CC2)C1)C1CC1` [Example 9.2, (S)-3-Chloro-N-(1-cyclopropyl-2-(3-cyclopropyl-3-hydroxyazetidin-1-yl)ethyl)-4-fluoro-N-methylbenzamide] stands 5.92.

On to `CN(C(=O)c1ccc(F)c(F)c1)[C@H](CN1CC(O)(C2CC2)C1)C1CC1` [Example 9.3, (S)-N-(1-Cyclopropyl-2-(3-cyclopropyl-3-hydroxyazetidin-1-yl)ethyl)-3,4-difluoro-N-methylbenzamide], for which the pIC50 was 5.51.

Turning to `CN(C(=O)c1ccc(C#N)cc1)[C@H](CN1CC(O)(C2CC2)C1)C1CC1` [Example 9.4, (S)-4-Cyano-N-(1-cyclopropyl-2-(3-cyclopropyl-3-hydroxyazetidin-1-yl)ethyl)-N-methylbenzamide], the pIC50 is 4.85. Regarding `Cc1ccc(C(=O)N(C)[C@H](CN2CC(O)(C3CC3)C2)C2CC2)cc1C` [Example 9.5, (S)-N-(1-Cyclopropyl-2-(3-cyclopropyl-3-hydroxyazetidin-1-yl)ethyl)-N,3,4-trimethylbenzamide], the negative-log IC50 (pIC50) was 5.89. `CC(C)[C@@H](CN1CC(C)(O)C1)N(C)C(=O)c1ccc(Br)cc1` [Example 9.6, (S)-4-Bromo-N-(1-(3-hydroxy-3-methylazetidin-1-yl)-3-methyl-butan-2-yl)-N-methylbenzamide]: the pIC50 is 5.55.

As to `CC(C)[C@@H](CN1CC(C)(O)C1)N(C)C(=O)c1ccc(Cl)cc1` [Example 9.7, (S)-4-Chloro-N-(1-(3-hydroxy-3-methylazetidin-1-yl)-3-methyl-butan-2-yl)-N-methylbenzamide], the pIC50 was 5.07. Regarding `CC(C)[C@@H](CN1CC(C)(O)C1)N(C)C(=O)c1ccc(F)c(C(F)(F)F)c1` [Example 9.8, (S)-4-Fluoro-N-(1-(3-hydroxy-3-methylazetidin-1-yl)-3-methyl-butan-2-yl)-N-methyl-3-(trifluoromethyl)benzamide], the pIC50 was 5.28.

Regarding `CN(C(=O)c1ccc(F)c(F)c1)[C@H](CN1CC(O)C1)C1CC1` [Example 9.9, (S)-N-(1-Cyclopropyl-2-(3-hydroxyazetidin-1-yl)ethyl)-3,4-difluoro-N-methylbenzamide], the pIC50 was 4.96. `Cc1ccc(C(=O)N(C)[C@H](CN2CCC2)C2CC2)cc1C` [Example 9.10, N-[(1S)-2-(azetidin-1-yl)-1-cyclopropylethyl]-N,3,4-trimethylbenzamide]: the pIC50 was 5.68. Under `CN(C(=O)c1ccc(F)c(F)c1)[C@H](CN1CCC1)C1CC1` [Example 9.11, (S)-N-(2-(Azetidin-1-yl)-1-cyclopropylethyl)-3,4-difluoro-N-methylbenzamide] stands 4.92.

What is called pIC50 is the negative decadic logarithm of the IC50, by convention in mol/L.

Source of the values: patent US8361998B2, “Compounds and their use as IKACh blockers” (AstraZeneca AB, priority 2010, dated 2013).
